One data set has as its system Sprague-Dawley (SD) rat. Nature of the data set: Stress sleep disorder model, brain waves during sleep. The format is in vivo. The settings on record: stress-induced rats, oral about 20 mg per 1 kg body weight per day. As for the experimental part: The following method was used to induce stress in rats in an ergothioneine administration group (N=5) and a non-administration group (N=7). During the test period, the rats were kept under a 12-hour light-dark cycle. A Sprague-Dawley (SD) rat (8 weeks of age) was introduced into a cage where a larger and highly aggressive Brown-Norway (BN) rat was kept. These two rats were housed together for 10 minutes to make sure contact (direct contact) between the rats as the BN rat chasing after or hovering over the SD rat. Then, the SD rat and the BN rat were kept together for 24 hours in a breeding cage having compartments separated by a transparent perforated partition (indirect contact). Stress was induced in the SD rat in the same manner on the following day. A BM rat different from the one on the preceding day was used as a stressor. Stress was induced once a day for five consecutive days (from Monday to Friday), and then only indirect contact was allowed for two days on the weekend. This process was repeated for two cycles. Thus, stress induction under conditions combining direct contact and indirect contact was performed 10 times in total, and stress was induced for 12 days in total. The ergothioneine administration group was orally administered with L-ergothioneine from seven days before stress induction to the end of stress induction. L-ergothioneine was used in the form of an aqueous solution of L-ergothioneine dissolved in water (L-ergothioneine concentration: 0.25 mg/mL). The dosage of L-ergothioneine was about 20 mg per 1 kg body weight per day. The non-administration group was orally administered with water instead of the aqueous L-ergothioneine solution. The control (stress (−)) group (N=4) was orally administered with water without the stress induction. Electrodes were implanted in the rats to record brain waves, and brain waves during sleep and wakefulness were recorded for 24 hours after the end of stress induction. NREM sleep, REM sleep, and awake state were determined from the brain waves using biological signal analysis software Spike2 (available from CED), and the duration of episode of each of these states was calculated. Tukey's multiple comparisons test (*: p<0.05, **: p<0.005, ****: p<0.0001) was performed for significance testing.

Data set [1] relates to male and female adults feeling stressed on a daily basis and dissatisfied with their sleep. Nature of the data set: Sleep quality evaluation test for humans (electroencephalograph SLEEPSCOPE). The format is in vivo, human. To be noted: 20 mg capsule daily for four weeks. As for the experimental part: (§1) In order to examine a sleep improving effect such as a sleep quality-improving effect of a supplement containing ergothioneine, male and female adults feeling stressed on a daily basis and dissatisfied with their sleep (test food group: 46 subjects; control food group: 46 subjects; 92 subjects in total) were subjected to a placebo-controlled, randomized, double-blind, parallel-group comparative study in which one capsule containing 20 mg of L-ergothioneine (test food) or one capsule not containing L-ergothioneine (control food) was ingested daily for four weeks. The sleep quality and sleep duration were evaluated by measuring brain waves during sleep using an electroencephalograph “SLEEPSCOPE” (product name) available from SleepWell Co., Ltd. A 2-sample t-test (**: p<0.01, *: p<0.05, t: p<0.1, vs. control food group) was performed for significance testing between the groups.
Two types of food indistinguishable in terms of appearance, flavor, and the like were used for evaluation. • Test food: capsule containing a test substance (L-ergothioneine 20 mg) • Control food: capsule not containing a test substance
Each type of food for evaluation contained raw materials such as dextrin, hydroxypropyl cellulose, carrageenan, potassium chloride, and titanium oxide, in addition to the test substance. The control food was produced using the same raw materials used in the test food, except that the test substance (L-ergothioneine) was not added.
(§2) Brain waves during sleep were measured before the start of ingestion of the food for evaluation (pre-test) and after four weeks of ingestion of the food. The pre-test measurement of brain waves was regarded as “pre-examination”, and the measurement of brain waves after four weeks of ingestion of the food for evaluation was regarded as “week 4 examination”. The L-ergothioneine concentration (μM) in blood of each subject was also measured at the pre-examination and at the week 4 examination.
NREM sleep is divided into three stages 1 to 3 according to sleep depth by measuring brain waves using an electroencephalograph “SLEEPSCOPE” available from SleepWell Co., Ltd.
Ratio (%) of each sleep stage (NREM sleep stage 1, 2, or 3) to total sleep time; number of wake after sleep onset (frequency); number of wake after sleep onset in two hours before waking up (frequency), NREM sleep latency (min); 5 power in the first sleep cycle (delta power during NREM sleep in the first sleep cycle) (μV^2); and sleep efficiency (%).
FIGS. 4 to 19 show results of main evaluation items for sleep quality (ratio of total time of each sleep stage to total sleep time; number of wake after sleep onset; number of wake after sleep onset in two hours before waking up; NREM sleep latency; 5 (delta) power in the first sleep cycle, and sleep efficiency) and sleep duration, as determined by measuring brain waves. FIGS. 4 to 19 show the measured values and the amount of change between measurements at the pre-examination and at the week 4 examination (**: p<0.01, *: p<0.05, †: p<0.1, vs. control food group). The amount of change is a value obtained by subtracting the measured value at the pre-examination from the measured value at the week 4 examination (“measured value at week 4 examination”−“measured value at pre-examination”). The results shown in FIG. 4 to FIG. 20 are presented in means±standard error for each group. A 2-sample t-test (**: p<0.01, *: p<0.05, †: p<0.1, vs. control food group) was performed for significance testing between the groups. In FIG. 4, FIG. 5, FIG. 6, FIG. 8, FIG. 10, FIG. 12, FIG. 14, FIG. 16, FIG. 18, and FIG. 20, “Pre.” refers to the pre-examination, and “Post.” refers to the week 4 examination. The solid lines represent the test food group, and the dashed lines represent the control food group. In FIG. 7, FIG. 9, FIG. 11, FIG. 13, FIG. 15, FIG. 17, and FIG. 19, the black bars represent the test food group, and the white bars represent the control food group.

A short description of data set [2]: L-ergothioneine concentration in plasma of human subjects. In kind it is in vivo. To be noted: 20 mg capsule daily for four weeks, week 4 vs pre-examination and control food group, FIG. 20. As for the experimental part: as §1, §2
Where [3] appears, read: light phase, vs non-administration group, FIG. 1.

The results in this text go back to patent US20230000829A1, “COMPOSITION FOR SLEEP IMPROVEMENT COMPRISING ERGOTHIONEINE OR SALT THEREOF” (priority 2019, published 2023).

“Also recorded” adds a separate entry of the source.

Regarding `C[N+](C)(C)[C@@H](Cc1c[nH]c(=S)[nH]1)C(=O)[O-]` [L-ergothioneine], the “fragmentation in REM sleep (number of sleep fragmentation episodes)” value in the data set on Sprague-Dawley (SD) rat (light phase, FIG. 2) was “reduced fragmentation to a level comparable to that of the control group”. Besides, in the data set with Sprague-Dawley (SD) rat (setting [3]), the “duration of episode of NREM sleep (NREM)” value is “improved these phenomena to the level of the control group without stress induction” and the “duration of episode of REM sleep (REM)” value is recorded as “improved these phenomena to the level of the control group without stress induction”. In the data set with Sprague-Dawley (SD) rat, the “ratio of NREM sleep duration to total sleep time” value is given as “increased the ratio of NREM sleep duration to total sleep time”. In addition, the “sleep latency (latency from the start of the light phase to the first episode of NREM sleep)” value in the data set with Sprague-Dawley (SD) rat (FIG. 3) is on record as “to a level comparable to that of control group without stress induction; also recorded: exhibited an action to reduce an increase in sleep latency”. For the same compound, in data set [1], the “number and duration of wake after sleep onset” value was “reduced the number and duration of wake after sleep onset”. Besides, in data set [1] (vs control food group), the “ratio of NREM sleep duration (total of stages 1 to 3) to total sleep time” value is recorded as “increased the ratio of NREM sleep duration to total sleep time” and the sleep latency entry is on record as “showed a reduced sleep latency, compared to the control food group”. For the same compound, the “ratio of NREM sleep stage 1 (N1) to total sleep time” value in data set [1] (vs control food group, FIG. 4, 7) was “significantly suppressed”. Also, the “number of wake after sleep onset” value in data set [1] (vs control food group, FIG. 8, 9) is recorded as “significantly suppressed sleep fragmentation”. Also, the “number of wake after sleep onset in two hours before waking up” value in data set [1] (vs control food group, FIG. 10, 11) was “significantly suppressed sleep fragmentation”. Besides, the “NREM sleep latency (time to reach deep sleep)” value in data set [1] (vs control food group, FIG. 12, 13) is “reduced an increase in time to reach deep sleep”. In addition, in data set [1] (vs control food group, FIG. 14, 15), the “5 power in the first sleep cycle” value is given as “increased 5 power in the first sleep cycle”. Further, the sleep efficiency entry in data set [1] (vs control food group, FIG. 16, 17) was “increased sleep efficiency”. The sleep duration entry in data set [1] (vs control food group, FIG. 18, 19) is recorded as “increased sleep duration”. Besides, the “L-ergothioneine concentration in plasma” value in data set [2] was “increased the L-ergothioneine concentration in plasma”.
